Patent US11725011B2, “Bicyclic urea kinase inhibitors and uses thereof” (The Broad Institute, Inc., priority 2016, dated 2023)

How the values were obtained:
Assay in all cases: KINOMEscan
Format in all cases: binding
Details in all cases: 1 uM
[1] = target: JAK1 (JH2 domain-pseudokinase) (Homo sapiens (Human), UniProt P23458)
[2] = target: ERK4 (Homo sapiens (Human), UniProt P31152)
[3] = target: EPHA6 (Homo sapiens (Human), UniProt Q9UF33)
[4] = target: FGFR3 (G697C) (Homo sapiens (Human), UniProt P22607, G697C)
[5] = target: HPK1 (Homo sapiens (Human), UniProt Q92918)
Chain of HPK1 (Q92918 whole entry): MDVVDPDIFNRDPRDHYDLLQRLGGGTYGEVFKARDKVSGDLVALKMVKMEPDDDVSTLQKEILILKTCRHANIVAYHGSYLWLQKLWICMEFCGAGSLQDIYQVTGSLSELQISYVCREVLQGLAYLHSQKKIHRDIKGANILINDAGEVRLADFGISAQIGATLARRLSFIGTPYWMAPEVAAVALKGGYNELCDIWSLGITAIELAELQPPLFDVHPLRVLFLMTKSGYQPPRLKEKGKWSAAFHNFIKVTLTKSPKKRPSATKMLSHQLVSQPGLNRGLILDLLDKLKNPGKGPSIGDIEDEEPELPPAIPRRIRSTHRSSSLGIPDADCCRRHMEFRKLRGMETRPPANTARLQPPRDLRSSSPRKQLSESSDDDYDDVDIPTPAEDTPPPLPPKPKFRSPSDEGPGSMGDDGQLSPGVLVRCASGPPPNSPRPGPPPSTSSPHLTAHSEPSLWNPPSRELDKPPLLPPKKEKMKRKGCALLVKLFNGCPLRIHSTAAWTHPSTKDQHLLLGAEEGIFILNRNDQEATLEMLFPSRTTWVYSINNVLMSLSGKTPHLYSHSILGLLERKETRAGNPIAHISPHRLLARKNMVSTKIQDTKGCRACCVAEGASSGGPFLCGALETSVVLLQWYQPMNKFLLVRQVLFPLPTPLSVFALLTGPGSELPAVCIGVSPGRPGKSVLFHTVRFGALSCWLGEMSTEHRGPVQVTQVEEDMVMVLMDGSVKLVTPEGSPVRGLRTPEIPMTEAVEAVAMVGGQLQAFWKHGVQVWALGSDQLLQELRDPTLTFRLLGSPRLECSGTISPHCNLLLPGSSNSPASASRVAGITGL

[6] = target: DYRK1B (Homo sapiens (Human), UniProt Q9Y463)
[7] = target: EPHA3 (Homo sapiens (Human), UniProt P29320)
Chain of EPHA3 (P29320 21-983): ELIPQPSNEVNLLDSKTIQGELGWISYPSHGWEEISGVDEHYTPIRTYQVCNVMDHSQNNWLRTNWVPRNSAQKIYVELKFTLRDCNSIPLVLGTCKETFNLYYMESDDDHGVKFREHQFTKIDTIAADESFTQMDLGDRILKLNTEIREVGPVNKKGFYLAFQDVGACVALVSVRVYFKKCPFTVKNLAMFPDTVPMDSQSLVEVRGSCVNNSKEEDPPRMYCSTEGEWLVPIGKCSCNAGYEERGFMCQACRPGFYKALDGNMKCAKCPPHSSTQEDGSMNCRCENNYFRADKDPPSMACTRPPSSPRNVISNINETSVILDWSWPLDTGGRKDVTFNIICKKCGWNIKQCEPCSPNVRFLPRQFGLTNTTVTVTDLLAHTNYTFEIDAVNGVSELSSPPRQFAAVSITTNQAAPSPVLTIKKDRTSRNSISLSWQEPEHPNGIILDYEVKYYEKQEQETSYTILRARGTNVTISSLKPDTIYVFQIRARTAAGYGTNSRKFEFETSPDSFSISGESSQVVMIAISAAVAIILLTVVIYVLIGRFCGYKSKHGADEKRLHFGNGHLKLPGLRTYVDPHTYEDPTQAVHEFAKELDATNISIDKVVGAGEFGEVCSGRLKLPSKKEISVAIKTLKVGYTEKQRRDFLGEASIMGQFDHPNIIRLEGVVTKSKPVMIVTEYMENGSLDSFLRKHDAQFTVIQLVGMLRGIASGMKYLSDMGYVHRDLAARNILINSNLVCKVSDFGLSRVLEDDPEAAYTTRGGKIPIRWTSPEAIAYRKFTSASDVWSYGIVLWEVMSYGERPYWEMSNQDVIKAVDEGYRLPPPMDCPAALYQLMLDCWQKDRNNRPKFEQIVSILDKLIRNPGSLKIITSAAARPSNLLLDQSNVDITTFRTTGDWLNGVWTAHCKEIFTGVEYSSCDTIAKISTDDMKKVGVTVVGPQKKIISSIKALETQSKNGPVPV

[8] = target: SGK3 (Homo sapiens (Human), UniProt Q96BR1)
[9] = target: CSNK1G2 (Homo sapiens (Human), UniProt P78368)
[10] = target: FGFR4 (Homo sapiens (Human), UniProt P22455)
Chain of FGFR4 (P22455 22-802): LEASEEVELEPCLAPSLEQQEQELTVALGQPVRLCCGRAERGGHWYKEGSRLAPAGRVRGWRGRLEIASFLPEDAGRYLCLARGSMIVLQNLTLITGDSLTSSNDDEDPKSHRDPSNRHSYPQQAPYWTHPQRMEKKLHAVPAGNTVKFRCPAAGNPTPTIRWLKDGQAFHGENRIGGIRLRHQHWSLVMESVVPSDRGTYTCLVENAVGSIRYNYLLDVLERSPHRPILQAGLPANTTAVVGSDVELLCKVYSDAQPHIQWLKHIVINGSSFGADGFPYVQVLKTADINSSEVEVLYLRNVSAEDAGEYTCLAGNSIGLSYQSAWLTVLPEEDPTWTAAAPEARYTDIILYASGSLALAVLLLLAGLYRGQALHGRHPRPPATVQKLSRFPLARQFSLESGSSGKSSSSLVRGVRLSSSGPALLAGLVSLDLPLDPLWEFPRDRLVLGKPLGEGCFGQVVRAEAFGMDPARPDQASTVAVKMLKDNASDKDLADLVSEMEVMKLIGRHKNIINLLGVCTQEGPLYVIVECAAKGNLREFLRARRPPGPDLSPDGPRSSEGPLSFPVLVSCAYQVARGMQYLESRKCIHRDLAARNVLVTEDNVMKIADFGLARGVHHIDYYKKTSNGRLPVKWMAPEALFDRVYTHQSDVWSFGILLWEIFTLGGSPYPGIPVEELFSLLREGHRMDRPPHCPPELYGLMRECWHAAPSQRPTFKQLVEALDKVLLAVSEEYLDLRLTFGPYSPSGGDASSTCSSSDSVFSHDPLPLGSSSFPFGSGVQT

[11] = target: PHKG2 (Homo sapiens (Human), UniProt P15735)
[12] = target: MRCKB (Homo sapiens (Human), UniProt Q9Y5S2)
[13] = target: CDKL1 (Homo sapiens (Human), UniProt Q00532)
[14] = target: JAK1 (JH1domain-catalytic) (Homo sapiens (Human), UniProt P23458)
Chain of JAK1 (JH1domain-catalytic) (P23458 875-1153): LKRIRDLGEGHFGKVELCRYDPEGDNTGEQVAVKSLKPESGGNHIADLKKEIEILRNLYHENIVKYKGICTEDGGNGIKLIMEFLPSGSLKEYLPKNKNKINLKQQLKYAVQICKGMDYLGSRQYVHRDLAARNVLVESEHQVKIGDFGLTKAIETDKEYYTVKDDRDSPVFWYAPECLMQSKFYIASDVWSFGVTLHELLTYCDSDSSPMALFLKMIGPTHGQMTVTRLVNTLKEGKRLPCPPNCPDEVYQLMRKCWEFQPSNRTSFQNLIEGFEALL

[15] = target: EPHB2 (Homo sapiens (Human), UniProt P29323)
[16] = target: CAMK4 (Homo sapiens (Human), UniProt Q16566)
[17] = target: DRAK2 (Homo sapiens (Human), UniProt O94768)
[18] = target: MYLK4 (Homo sapiens (Human), UniProt Q86YV6)
Chain of MYLK4 (Q86YV6 whole entry): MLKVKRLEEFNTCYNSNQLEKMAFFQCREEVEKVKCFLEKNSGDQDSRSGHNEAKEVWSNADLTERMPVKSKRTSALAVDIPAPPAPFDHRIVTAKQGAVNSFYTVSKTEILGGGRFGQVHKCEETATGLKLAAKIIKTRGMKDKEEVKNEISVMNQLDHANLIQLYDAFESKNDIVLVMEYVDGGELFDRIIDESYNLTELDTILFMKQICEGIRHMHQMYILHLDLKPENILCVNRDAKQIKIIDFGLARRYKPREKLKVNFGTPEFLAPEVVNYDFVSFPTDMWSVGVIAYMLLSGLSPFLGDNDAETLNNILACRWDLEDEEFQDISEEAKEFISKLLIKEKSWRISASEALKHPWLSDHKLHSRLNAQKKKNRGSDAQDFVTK

[19] = target: PIK3CA (I800L) (Homo sapiens (Human), UniProt P42336, I800L)
[20] = target: CSNK1A1 (Homo sapiens (Human), UniProt P48729)
[21] = target: PIP5K2B (Homo sapiens (Human), UniProt P78356)
[22] = target: MST2 (Homo sapiens (Human), UniProt Q13188)
[23] = target: CDK8 (Homo sapiens (Human), UniProt P49336)
[24] = target: CDK7 (Homo sapiens (Human), UniProt P50613)
Chain of CDK7 (P50613 whole entry): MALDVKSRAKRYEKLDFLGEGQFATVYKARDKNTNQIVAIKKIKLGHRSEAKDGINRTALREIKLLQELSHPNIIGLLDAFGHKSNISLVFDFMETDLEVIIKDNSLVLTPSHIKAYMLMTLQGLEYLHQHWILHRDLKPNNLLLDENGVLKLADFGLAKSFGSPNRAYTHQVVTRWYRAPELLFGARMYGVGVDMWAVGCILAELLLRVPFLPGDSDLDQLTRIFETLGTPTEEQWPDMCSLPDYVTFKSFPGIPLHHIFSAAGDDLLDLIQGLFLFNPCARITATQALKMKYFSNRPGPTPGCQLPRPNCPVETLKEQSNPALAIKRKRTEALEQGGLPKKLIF

[25] = target: PIK4CB (Homo sapiens (Human), UniProt Q9UBF8)
[26] = target: YANK2 (Homo sapiens (Human), UniProt Q9NY57)
Chain of YANK2 (Q9NY57 whole entry): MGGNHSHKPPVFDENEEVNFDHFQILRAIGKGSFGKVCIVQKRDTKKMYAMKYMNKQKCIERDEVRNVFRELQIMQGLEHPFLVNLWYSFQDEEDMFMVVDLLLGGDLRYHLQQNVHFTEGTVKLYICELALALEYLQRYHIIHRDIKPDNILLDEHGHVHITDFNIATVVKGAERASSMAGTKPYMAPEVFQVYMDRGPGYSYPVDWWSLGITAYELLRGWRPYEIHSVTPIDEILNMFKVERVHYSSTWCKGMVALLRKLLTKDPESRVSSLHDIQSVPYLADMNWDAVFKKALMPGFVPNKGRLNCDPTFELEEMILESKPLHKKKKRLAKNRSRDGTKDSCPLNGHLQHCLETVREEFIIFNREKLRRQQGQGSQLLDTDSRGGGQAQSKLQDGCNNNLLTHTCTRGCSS

[27] = target: PIK3CA (Homo sapiens (Human), UniProt P42336)
[28] = target: EGFR (L861Q) (Homo sapiens (Human), UniProt P00533, L861Q)
[29] = target: SRPK2 (Homo sapiens (Human), UniProt P78362)
[30] = target: CDKL3 (Homo sapiens (Human), UniProt Q8IVW4)
[31] = target: ABL1 (H396P)-phosphorylated (Homo sapiens (Human), UniProt P00519, H396P)
[32] = target: WNK1 (Homo sapiens (Human), UniProt Q9H4A3)
[33] = target: DYRK1A (Homo sapiens (Human), UniProt Q13627)
[34] = target: TIE2 (Homo sapiens (Human), UniProt Q02763)
[35] = target: RIOK3 (Homo sapiens (Human), UniProt O14730)
[36] = target: ERBB4 (Homo sapiens (Human), UniProt Q15303)
[37] = target: MAST1 (Homo sapiens (Human), UniProt Q9Y2H9)
[38] = target: PIP5K2C (Homo sapiens (Human), UniProt Q8TBX8)
[39] = target: STK33 (Homo sapiens (Human), UniProt Q9BYT3)
[40] = target: EPHA5 (Homo sapiens (Human), UniProt P54756)
[41] = target: ABL1-nonphosphorylated (Homo sapiens (Human), UniProt P00519)

Chain of ERK4 (P31152 whole entry): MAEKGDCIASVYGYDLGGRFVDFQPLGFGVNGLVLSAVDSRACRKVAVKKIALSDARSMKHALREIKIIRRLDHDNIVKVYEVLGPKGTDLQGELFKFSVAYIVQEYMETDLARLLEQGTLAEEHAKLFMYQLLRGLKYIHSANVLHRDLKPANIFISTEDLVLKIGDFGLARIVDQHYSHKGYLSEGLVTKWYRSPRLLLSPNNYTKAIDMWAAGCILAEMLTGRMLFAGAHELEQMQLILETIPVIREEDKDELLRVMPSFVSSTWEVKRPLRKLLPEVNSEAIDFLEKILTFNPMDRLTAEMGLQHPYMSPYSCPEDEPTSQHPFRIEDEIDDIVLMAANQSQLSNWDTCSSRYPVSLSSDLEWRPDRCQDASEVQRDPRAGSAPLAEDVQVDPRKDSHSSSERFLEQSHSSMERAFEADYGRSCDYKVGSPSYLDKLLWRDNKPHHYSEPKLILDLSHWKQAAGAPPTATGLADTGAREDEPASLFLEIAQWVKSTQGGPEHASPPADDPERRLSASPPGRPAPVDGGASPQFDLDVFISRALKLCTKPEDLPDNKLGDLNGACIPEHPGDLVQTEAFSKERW
Chain of JAK1 (JH2 domain-pseudokinase) (P23458 583-855): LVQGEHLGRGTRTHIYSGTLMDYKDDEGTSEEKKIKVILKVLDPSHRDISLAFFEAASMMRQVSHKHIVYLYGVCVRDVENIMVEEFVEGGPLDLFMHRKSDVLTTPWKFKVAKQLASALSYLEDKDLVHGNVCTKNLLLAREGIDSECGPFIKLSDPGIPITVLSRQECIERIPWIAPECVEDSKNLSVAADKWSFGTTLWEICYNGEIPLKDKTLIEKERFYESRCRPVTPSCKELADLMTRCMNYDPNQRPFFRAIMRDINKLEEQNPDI

## COc1ccc(N2C(=O)N(c3c(C)cccc3C)Cc3cnc(Nc4ccc(N5CCN(C)CC5)cc4)nc32)c(OC)c1 [HG-11-136-01]
[1]
  KINOMEscan JAK1 (JH2 domain-pseudokinase): 8.1
[2]
  KINOMEscan ERK4: 95
[3]
  KINOMEscan EPHA6: 0.2
[4]
  KINOMEscan FGFR3 (G697C): 1.4
[5]
  KINOMEscan HPK1: 0.95
[6]
  KINOMEscan DYRK1B: 60
[7]
  KINOMEscan EPHA3: 0.8
[8]
  KINOMEscan SGK3: 77
[9]
  KINOMEscan CSNK1G2: 100
[10]
  KINOMEscan FGFR4: 2
[11]
  KINOMEscan PHKG2: 93
[12]
  KINOMEscan MRCKB: 38
[13]
  KINOMEscan CDKL1: 84
[14]
  KINOMEscan JAK1 (JH1domain-catalytic): 57
[15]
  KINOMEscan EPHB2: 0
[16]
  KINOMEscan CAMK4: 100
[17]
  KINOMEscan DRAK2: 100
[18]
  KINOMEscan MYLK4: 60
[19]
  KINOMEscan PIK3CA (I800L): 94
[20]
  KINOMEscan CSNK1A1: 100
[21]
  KINOMEscan PIP5K2B: 27
[22]
  KINOMEscan MST2: 0.75
[23]
  KINOMEscan CDK8: 100
[24]
  KINOMEscan CDK7: 60
[25]
  KINOMEscan PIK4CB: 63
[26]
  KINOMEscan YANK2: 1.8
[27]
  KINOMEscan PIK3CA: 100
[28]
  KINOMEscan EGFR (L861Q): 0
[29]
  KINOMEscan SRPK2: 93
[30]
  KINOMEscan CDKL3: 58
[31]
  KINOMEscan ABL1 (H396P)-phosphorylated: 0
[32]
  KINOMEscan WNK1: 89
[33]
  KINOMEscan DYRK1A: 30
[34]
  KINOMEscan TIE2: 0.75
[35]
  KINOMEscan RIOK3: 25
[36]
  KINOMEscan ERBB4: 0.2
[37]
  KINOMEscan MAST1: 62
[38]
  KINOMEscan PIP5K2C: 100
[39]
  KINOMEscan STK33: 24
[40]
  KINOMEscan EPHA5: 0.6
[41]
  KINOMEscan ABL1-nonphosphorylated: 0
